Source: patent US20250122193A1, “NOVEL PYRIDOCARBAZOLIUM COMPOUNDS AND MEDICAL USES THEREOF” (MyCural Therapeutics, priority 2021, published 2025)

Columns and labels:
[1] = molecular target: T1, homodimerization of the bZip protein GCN4 (Saccharomyces cerevisiae, UniProt P03069); experiment: split Gaussia luciferase (GLuc) assay, GCN4:GCN4; assay type: cell-based; conditions: 6.5 μM
T1 construct: replacing the existing Zip-gene (GCN4); expressed in transfected cells; host or cells: HeLa
Procedure: FIG. 1: MYCMI-7 (Compound Example 1) inhibits the MYC:MAX interaction in cells, bind MYC in vitro, and blocks MYC function. A) Molecular structure of MYCMI-7. B-E) split Gaussia luciferase (GLuc) assay. MYC or MYCN and MAX Gluc constructs were co-transfected into HeLa cells together with a firefly luciferase vector. 24 hours post transfection cells were treated with compounds, and after another 17-24 hours cells were harvested and both GLuc and firefly luciferase activities were measured. The mean of three different experiments is shown. […] G) Quantification of isPLA dots. […] J) MYC target gene ODC1 expression after treatment with 5 μM MYCMI-7, quantified by qPCR. […] L) Recombinant MYC bHLHZip protein domain immobilized onto a CM5 chip was subjected to various concentrations of MYCMI-7 and the complex of MYCbHLHZip-MYCMI-7 was measured as response units by SPR. […]
0.2-0.4 μg of each GLuc-construct together with 0.05 μg pCMV-LUC (firefly luciferase) were used per transfection in 12 well plates. […] After 60 min incubation at room temperature 20 μM D-luciferin was added (substrate of Firefly luciferase) and luminescence was measured in a Lumat LB9501 (Berthold) or OmegaFluostar (BMG Labtech) luminometer. Directly after, Gaussia luciferase substrate Coelenterazine (Promega) was added to a final concentration of 20 μM in a mixture with “Stop n' Glow” (Promega) and the luciferase activity was measured. […]

[2] = system: wt and p53-deficient HCT116 cells; experiment: WST1 assay in wt and p53-deficient HCT116 cells; assay type: cell-based; conditions: titration
MYC protein [3] = experiment: steady state MYC protein level by western blot; assay type: cell-based; conditions: reconstituted HO15.19 MYC knockout Rat1 cells, 5 μM overnight
Procedure: (§1) FIG. 2: MYCMI-7 downregulates MYC and MYCN protein expresión. A) Steady state levels of MYC protein in MCF7 cells after 17 hours exposure to indicated concentrations MYCMI-7 or ellipticine B) MYC mRNA expression in MCF7 cells after treatment with MYCMI-7 for various time points. C) Steady state levels of MYC protein in different HCT116 cell lines (WT, FBW7−/− or p53−/−) after 17 hours exposure to 5 μM MYCMI-7. Endogenous MYC was immunoprecipitated and detected by western blot analysis. D) Cycloheximide (CHX) chase in HCT116 cells. Cells were subjected to 5 μM MYCMI-7 30 min prior cycloheximide addition. Cells were harvested after the indicated time points, MYC was immunoprecipitated using N262 antibody and the MYC levels analyzed using western blot (C33 antibody). E) CHX chase after MYCMI-7 treatment performed as in (D) using Fbxw7-deficient HCT116 cells. F) Stable expression of wt, T58A or S62A MYC in HO15.19 MYC−/− cells. The cells were treated with 5 μM MYCMI-7 overnight, and MYC expression was analyzed by western blot. G) Cartoon showing a linear structural representation of wt MYC and indicated mutants. H-J) Expression of MYC mutants after MYCMI-7 treatment. COS-7 cells were transfected with CMV-driven vectors containing HA-tagged wt MYC or mutants for 24 hrs and treated with 5 μM MYCMI-7 for 17 hrs. The DN (H) and DC (I) MYC mutants encodes the C-terminal and N-terminal halves of the MYC protein, respectively. DBr (J) lacks the DNA-binding basic region of the protein. A-J). Representative western blots out of at least three experiments are shown.
(§2) For western blot equal amounts of proteins ([…]) were separated on a 4-12% SDS-PAGE gel. Proteins were transferred to Immobilion-P membrane (Millipore) and detected by immunostaining and chemoluminescence (Immobilion western HRP substrate; Millipore). For immunoprecipitations 500-1000 μg of protein was used. […] Briefly, cells were crosslinked with 1% formaldehyde on ice for 6 minutes. Nuclear chromatin was sonicated on ice to fragments from 0.3 kb to 0.5 kb. Nuclear chromatin equivalent to 2.5×10^7 cells was immunoprecipitated with 2 μg antibody.

MYC protein [4] = molecular target: MYC protein (Homo sapiens, UniProt P01106); experiment: steady state MYC protein level by western blot; assay type: cell-based; conditions: for MYC protein level: 17 hours, 5 μM
Sequence of MYC protein (Homo sapiens, UniProt P01106) (P01106 16-454): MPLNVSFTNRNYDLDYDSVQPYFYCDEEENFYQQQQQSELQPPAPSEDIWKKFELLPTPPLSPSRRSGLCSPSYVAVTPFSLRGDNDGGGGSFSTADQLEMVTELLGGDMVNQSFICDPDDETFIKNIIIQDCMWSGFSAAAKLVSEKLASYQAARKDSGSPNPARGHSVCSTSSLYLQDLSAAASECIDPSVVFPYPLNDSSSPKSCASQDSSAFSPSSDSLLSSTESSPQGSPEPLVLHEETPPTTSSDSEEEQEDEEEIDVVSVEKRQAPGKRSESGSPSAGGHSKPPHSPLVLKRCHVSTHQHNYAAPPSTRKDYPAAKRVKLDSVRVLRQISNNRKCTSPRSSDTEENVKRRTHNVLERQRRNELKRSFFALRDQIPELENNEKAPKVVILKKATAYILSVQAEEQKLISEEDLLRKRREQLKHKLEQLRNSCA
Procedure: as §1, §2

MYC mRNA = MYC mRNA expression by RT-qPCR; assay type: cell-based
Procedure: A) Measurement of MYC mRNA expression by RTqPCR after treatment with MYCMI-7 and different topoisomerase inhibitors at indicated concentrations. […] D) Western blot analysis of p53 and p21 expression after exposure to 5 μM MYCMI-7, ellipticine or camptothecin (CPT) in HCT116 cells. E) Western blot analysis of phospho-ATM, total ATM and p53 expression after exposure to indicated concentrations of MYCMI-7 and ellipticine in A375 cells after 3 hrs treatment.

[5] = system: NCI-60 human tumor cell lines; experiment: NCI-60 GI50 response versus MYC level
Excerpt: “Responsive” and “less responsive”; cell lines with positive and negative log 10 GI50 values, respectively. “Higher MYC” and “lower MYC”; cell lines with higher and lower MYC expression levels (MYC mRNA/protein) than average, respectively.
To investigate whether the levels of MYC expression in tumor cells correlate with growth inhibitory response to MYCMI-7, we utilized GI50 and mRNA expression data from the NCI-60 diverse human tumor cell line panel available for MYCMI-7 by the Developmental Therapeutics Program of the U.S. National Cancer Institute (DTP-NCI). […] The cell lines were categorized as “responsive” or “less responsive” to MYCMI-7 based on average logarithmic GI50 values, as well as the categories “higher MYC” and “lower MYC” based on higher or lower than average MYC mRNA and/or high protein levels.

[6] = system: HO15.19 (MYC-/-) Rat1 fibroblasts; experiment: WST-1 growth/viability assay, MYC null Rat1 fibroblasts
Procedure: A) Immortalized Rat1 fibroblasts with different MYC status; TGR1 (wt MYC), HO15.19 (MYC−/−) and HOMyc3 (HO15.19 with reconstituted MYC) were treated with indicated concentrations of MYCMI-7 for 48 hours. Cell proliferation/viability/metabolic activity was measured using the WST-1 assay. […] “Responsive” and “less responsive”; cell lines with positive and negative log 10 GI50 values, respectively. […] For the WST-1 assays the average of three different experiments performed in triplicates is shown.
Cell growth and viability assays: Cell growth and viability was estimated in triplicates with WST-1 (Roche) or Resazurin sodium salt (Sigma-Aldrich) assays in medium at 37° C. and 5% CO2 for 2 hours after which absorbance or fluorescence, respectively, was measured with an Omega Fluostar (BMG Labtech) in a 96 well plate format.

[7] = oxidative metabolism in mouse liver microsomes
Excerpt: (§3) First, we performed a pharmacokinetic study of the behavior of the molecule in mice.

[8] = intracerebroventricular injection, toxicity; conditions: highest concentration (10 μM)
Excerpt: as §3

T1 sequence (P03069 253-274 limits assumed): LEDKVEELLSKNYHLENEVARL

CCN(CC)CC[n+]1ccc2c(C)c3[nH]c4ccccc4c3c(C)c2c1 [MYCMI-7, 2-(5,11-Dimethyl-6H-25-pyrido[4,3-b]carbazol-2-yl)-N,N-diethylethanamine bromide]
effect on homodimerization of GCN4 (GCN4:GCN4 GLuc) [1]: did not have any significant effect | growth response or MYC expression, wt versus p53-deficient cells [2]: no difference | levels of wt, T58A and S62A MYC (MYC protein [3]): reduced the levels of both wt and the MYC mutants | phosphorylation of MYC at Thr-58 or Ser-62 (MYC protein [4]): did not increase | MYC protein level (MYC protein [4]; FBXW7−/− HCT116 cells): unaffected | steady state level of MYC protein (MYC protein [4]; MCF7 cells, 17 hrs, 5 μM MYCMI-7): decreased drastically | MYC protein level (MYC protein [4]; wt and p53 null HCT116 cells): strongly reduced | MYC expression (mRNA) (MYC mRNA; 5 μM): only minor effect | MYC mRNA expression (MYC mRNA; MCF7 cells, various time points): not due to reduced MYC mRNA expression | correlation between response and MYC mRNA/protein levels ([5]; 60 tumor cell lines): significant correlation | cells with high MYC mRNA/protein level responsive to MYCMI-7 ([5]; NCI-60, GI50 data of DTP-NCI): 79% | cells with low MYC levels less responsive ([5]; NCI-60, GI50 data of DTP-NCI): 63% | concentration above which viability of HO15.19 cells started to go down (off target effects) [6]: higher than 10 μM | proliferation/viability of MYC null cells ([6]; concentrations of 10 μM, WST-1): unaffected | stability against oxidative metabolism [7]: stable | toxicity after intracerebroventricular injection [8]: no signs of toxicity
